Where two headings read alike, the source gives them in different places.
How the values were obtained:
[1] = test system: Septoria tritici—SEPTTR; experiment: Leaf Blotch of Wheat, in vivo whole plant, 24 Hour Protectant; conditions: inoculated after 24 hours; for pest or weed control at 100 ppm: Zymoseptoria tritici, read-out: SEPTTR in vivo 1 Day Protectant
[2] = test system: Ustilago maydis (USTIMA); experiment: microbe, parasite or virus in culture; format: cell-based
[3] = test system: Rhizoctonia solani (RHIZSO); experiment: microbe, parasite or virus in culture; format: cell-based
[4] = test system: Leptosphaeria nodorum—LEPTNO; experiment: Glume Blotch of Wheat, in vivo whole plant, 24 Hour Protectant; conditions: for pest or weed control at 100 ppm: Leptosphaeria, 24 h, read-out: LEPTNO in vivo 1 Day Protectant
[5] = test system: Puccinia recondita—PUCCRT; experiment: Brown Rust of Wheat, in vivo whole plant, 24 Hour Protectant; conditions: inoculated after 24 hours; for pest or weed control at 100 ppm: Puccinia, read-out: PUCCRT in vivo 1 Day Protectant
[6] = test system: Phytophthora infestans—PHYTIN; experiment: whole plant or invertebrate; format: in vivo; conditions: for pest or weed control at 100 ppm: Phytophthora, in Solanum lycopersicum, 24 h, read-out: PHYTIN in vivo 1 Day Protectant; for PHYTIN in vivo 1 Day Protectant: tomato plants sprayed at 100 ppm, inoculated after 24 hours, control vs untreated plants
[7] = test system: Erysiphe graminis—ERYSGT; experiment: Powdery Mildew of Wheat, in vivo whole plant, 24 Hour Protectant; conditions: for pest or weed control at 100 ppm: Erysiphe, in Triticum aestivum, 24 h, read-out: ERYSGT in vivo 1 Day Protectant; for ERYSGT in vivo 1 Day Protectant: inoculated after 24 hours
[8] = wheat (cultivar Yuma), sprayed at 100 ppm, control of fungal infection vs untreated plants
[9] = wheat (cultivar Yuma), sprayed at 100 ppm, inoculated after 24 hours, control of fungal infection vs untreated plants
[10] = wheat plants sprayed at 100 ppm, control vs untreated plants
[11] = wheat plants sprayed at 100 ppm, inoculated after 24 hours, control vs untreated plants

| Compound | pest or weed control at 100 ppm [1, 8] [%] | USTIMA in vitro Growth Inhibition [2] | RHIZSO in vitro Growth Inhibition [3] | pest or weed control at 100 ppm [4, 9] [%] | pest or weed control at 100 ppm [5, 8] [%] | pest or weed control at 100 ppm [7] [%] | further results |
| --- | --- | --- | --- | --- | --- | --- | --- |
| COc1ccnc(C(=O)NC2CC(C)(C)/C=C\CC(C)(C)C2)c1O (stereo not drawn) [Compound 283] | 75 to 100 | − (key: +: at least 80% growth inhibition; −: less than 80% growth inhibition) | − (key: +: at least 80% growth inhibition; −: less than 80% growth inhibition) | – | – | – | – |
| CCC1(C)CC(NC(=O)c2nccc(OC)c2O)CC(C)(C)C1 (stereo not drawn) [Compound 251] | 75 to 100 | − (key: +: at least 80% growth inhibition; −: less than 80% growth inhibition) | − (key: +: at least 80% growth inhibition; −: less than 80% growth inhibition) | 75 to 100 | 75 to 100 | – | – |
| COc1ccnc(C(=O)N[C@@H](Cc2ccc(OCc3ccccc3)cc2)C(=O)OCc2ccccc2)c1O [Compound 339] | 75 to 100 | − (key: +: at least 80% growth inhibition; −: less than 80% growth inhibition) | − (key: +: at least 80% growth inhibition; −: less than 80% growth inhibition) | 75 to 100 | 75 to 100 | – | – |
| CCC(C)C(=O)O[C@H]1[C@H](C)OC(=O)[C@@H](NC(=O)c2nccc(OC)c2O)COC(=O)[C@@H]1Cc1ccccc1 (stereo partly drawn) [Compound 389] | 25 to 74 | – | – | 75 to 100 | 25 to 74 | < 25 | pest or weed control at 100 ppm [6]: < 25% |
| COc1ccnc(C(=O)NC2CC(C)(C)CCCC2C)c1O (stereo not drawn) [Compound 277] | 75 to 100 | − (key: +: at least 80% growth inhibition; −: less than 80% growth inhibition) | − (key: +: at least 80% growth inhibition; −: less than 80% growth inhibition) | – | – | – | – |
| COc1ccnc(C(=O)N[C@H]2COC(=O)[C@H](Cc3ccccc3)[C@@H](OC(=O)CC(C)C)[C@H](C)OC2=O)c1O [Compound 390] | 25 to 74 | – | – | 75 to 100 | 25 to 74 | < 25 | pest or weed control at 100 ppm [6]: < 25% |
| COc1cccc(Oc2ccc(NC(=O)c3nccc(OC)c3O)cc2)c1 [Compound 435] | – | – | – | – | – | < 25 | LEPTNO in vivo 1 Day Protectant [4, 9]: + (25-74% control of fungal infection); SEPTTR in vivo 1 Day Protectant [1, 8]: − (<25% control of fungal infection); PUCCRT in vivo 1 Day Protectant [5, 8]: − (<25% control of fungal infection) |
| CCCC[C@H]1C(=O)O[C@H](C)C(NC(=O)c2cccc(NC(=O)c3nccc(OC)c3O)c2O)C(=O)O[C@@H](C)[C@@H]1OC(=O)CC(C)C (stereo partly drawn) [Compound 473] | – | – | – | – | – | – | pest or weed control at 100 ppm [4]: 75 to 100%; SEPTTR in vivo 1 Day Protectant [1, 10]: + (25-74% control of fungal infection); ERYSGT in vivo 1 Day Protectant [7, 10]: − (<25% control of fungal infection); PUCCRT in vivo 1 Day Protectant [5, 10]: + (25-74% control of fungal infection) |
| COc1ccnc(C(=O)NC2CCCC(Sc3ccc(C(F)(F)F)cn3)C2)c1O (stereo not drawn) [Compound 274] | – | − (key: +: at least 80% growth inhibition; −: less than 80% growth inhibition) | + (key: +: at least 80% growth inhibition; −: less than 80% growth inhibition) | 75 to 100 | 75 to 100 | – | – |
| COc1ccnc(C(=O)NC(COC(=O)CCc2ccccc2)C(=O)OC(C)COC(=O)C(C)C)c1O (stereo not drawn) [Compound 359] | 75 to 100 | – | – | – | 75 to 100 | – | – |
| COc1ccnc(C(=O)NC2CC(C)(C)C(Oc3cc(C(F)(F)F)cc(C(F)(F)F)n3)C(C)(C)C2)c1O (stereo not drawn) [Compound 272] | 75 to 100 | − (key: +: at least 80% growth inhibition; −: less than 80% growth inhibition) | − (key: +: at least 80% growth inhibition; −: less than 80% growth inhibition) | – | – | – | – |
| COc1ccnc(C(=O)N[C@H]2CO[C@H](C(C)Cc3ccc(C(C)(C)C)cc3)OC2)c1O (stereo partly drawn) [Compound 316] | – | + (key: +: at least 80% growth inhibition; −: less than 80% growth inhibition) | − (key: +: at least 80% growth inhibition; −: less than 80% growth inhibition) | – | 75 to 100 | – | – |
| COc1ccnc(C(=O)N[C@H]2CC3CC2[C@@H](COCc2cccc(C(F)(F)F)c2)C3)c1O (stereo partly drawn) [Compound 295] | 75 to 100 | − (key: +: at least 80% growth inhibition; −: less than 80% growth inhibition) | + (key: +: at least 80% growth inhibition; −: less than 80% growth inhibition) | – | – | – | – |
| COC(=O)C(COC(=O)C(CO[Si](C)(C)C(C)(C)C)Cc1ccccc1)NC(=O)c1nccc(OC)c1O (stereo not drawn) [Compound 350] | < 25 | – | – | 75 to 100 | 75 to 100 | < 25 | pest or weed control at 100 ppm [6]: < 25% |
| COc1ccnc(C(=O)NCC#Cc2ccccc2)c1O [Compound 240] | 75 to 100 | − (key: +: at least 80% growth inhibition; −: less than 80% growth inhibition) | − (key: +: at least 80% growth inhibition; −: less than 80% growth inhibition) | – | – | – | – |
| COc1ccnc(C(=O)NC2COC(=O)[C@H](Cc3ccccc3)[C@@H](OC(=O)C(C)C)[C@H](C)OC2=O)c1O (stereo partly drawn) [Compound 475] | – | – | – | – | – | < 25 | pest or weed control at 100 ppm [6]: < 25%; pest or weed control at 100 ppm [4, 11]: 75 to 100%; pest or weed control at 100 ppm [1, 10]: 25 to 74%; pest or weed control at 100 ppm [5, 10]: 25 to 74% |
| COc1ccnc(C(=O)N[C@H]2COC(=O)[C@H](Cc3ccccc3)[C@@H](OCC(C)C)[C@H](C)OC2=O)c1O [Compound 384] | – | – | – | 75 to 100 | – | 75 to 100 | – |
| COc1ccnc(C(=O)NC2C(=O)c3ccc(-c4ccco4)cc3OC2C)c1O (stereo not drawn) [Compound 323] | 75 to 100 | − (key: +: at least 80% growth inhibition; −: less than 80% growth inhibition) | + (key: +: at least 80% growth inhibition; −: less than 80% growth inhibition) | 75 to 100 | – | – | – |
| O=C(Nc1cccc(Oc2cccc(C(F)(F)F)c2)c1)c1nc(Br)ccc1O [Compound 496] | – | – | – | – | – | < 25 | PHYTIN in vivo 1 Day Protectant [6]: − (<25% control of fungal infection); LEPTNO in vivo 1 Day Protectant [4, 11]: − (<25% control of fungal infection); SEPTTR in vivo 1 Day Protectant [1, 10]: + (25-74% control of fungal infection); PUCCRT in vivo 1 Day Protectant [5, 10]: + (25-74% control of fungal infection) |
| COc1ccnc(C(=O)NC2C3CC4C(C3Cl)C42)c1O (stereo not drawn) [Compound 304] | 75 to 100 | − (key: +: at least 80% growth inhibition; −: less than 80% growth inhibition) | + (key: +: at least 80% growth inhibition; −: less than 80% growth inhibition) | – | – | – | – |
| CC(C)C(=O)O[C@H]1[C@H](C)OC(=O)[C@@H](NC(=O)c2nsnc2O)COC(=O)[C@@H]1Cc1ccccc1 [Compound 553] | – | – | – | – | – | – | pest or weed control at 100 ppm [6]: 75 to 100%; pest or weed control at 100 ppm [4, 11]: 75 to 100% |
| COc1ccnc(C(=O)N[C@@H]2CC3CC2c2ccccc23)c1O (stereo partly drawn) [Compound 290] | – | − (key: +: at least 80% growth inhibition; −: less than 80% growth inhibition) | + (key: +: at least 80% growth inhibition; −: less than 80% growth inhibition) | 75 to 100 | 75 to 100 | – | – |
| O=C(Nc1cccc(Oc2cccc(C(F)(F)F)c2)c1)c1nc(Br)ccc1O [Compound 497] | – | – | – | – | – | – | PHYTIN in vivo 1 Day Protectant [6]: − (<25% control of fungal infection); LEPTNO in vivo 1 Day Protectant [4, 11]: + (25-74% control of fungal infection); SEPTTR in vivo 1 Day Protectant [1, 10]: + (25-74% control of fungal infection); ERYSGT in vivo 1 Day Protectant [7, 10]: − (<25% control of fungal infection); PUCCRT in vivo 1 Day Protectant [5, 10]: + (25-74% control of fungal infection) |
| COc1ccnc(C(=O)N[C@H]2COC(=O)[C@H](CC3CCCC3)[C@@H](OC(=O)C(C)C)[C@H](C)OC2=O)c1O [Compound 402] | – | – | – | 75 to 100 | – | 75 to 100 | – |
| COc1ccnc(C(=O)N[C@H]2COC(=O)[C@H](Cc3ccccc3)[C@@H](OC(=O)Cc3ccccc3)[C@H](C)OC2=O)c1O [Compound 395] | – | – | – | – | – | – | LEPTNO in vivo 1 Day Protectant [4, 9]: + (25-74% control of fungal infection); SEPTTR in vivo 1 Day Protectant [1, 8]: + (25-74% control of fungal infection); ERYSGT in vivo 1 Day Protectant ([7]; wheat (cultivar Monon), sprayed at 100 ppm, control of fungal infection vs untreated plants): − (<25% control of fungal infection); PUCCRT in vivo 1 Day Protectant [5, 8]: + (25-74% control of fungal infection) |
| COc1ccnc(C(=O)N[C@H]2CO[C@](C)(C(C)CC3=C(C)CCCC3(C)C)OC2)c1O (stereo partly drawn) [Compound 319] | – | − (key: +: at least 80% growth inhibition; −: less than 80% growth inhibition) | − (key: +: at least 80% growth inhibition; −: less than 80% growth inhibition) | – | 75 to 100 | – | – |
